Test results: patent publication US8461128B2, “Anti-microbial agents and uses thereof” (priority 2005, dated 2013)
Values after ≈ are worked out from the molar mass of the structure shown. Values joined by “and” are separate entries in the source; they are usually repeats but may differ in a detail not shown here. Identical values can stand only once. Like-named read-outs stand apart in the source and are kept apart here.

Key:
YbtE [1] = target: T1, YbtE (Yersinia pestis, UniProt Q56950); assay: biochemical; format: biochemical
M. tuberculosis H37Rv = assay: microbe, parasite or virus in culture; format: cell-based, Mycobacterium tuberculosis
Y. pestis KIM6-2082.1+ = assay: microbe, parasite or virus in culture; format: cell-based, Yersinia pestis
YbtE [2] = target: T1, YbtE; assay: biochemical
YbtE [3] = target: T1, YbtE; conditions: cited from earlier work
[4] = tested on: MBT production in M. tuberculosis; format: cell-based, Mycobacterium tuberculosis
[5] = Isotopic stability in D2O (NMR); format: physicochemical; conditions: room temperature
92 Y. pestis strains = conditions: cited from earlier work
[6] = tested on: M. tuberculosis H37Rv reference strain; conditions: Wanger et al. 1996; cited from earlier work
[7] = Mycobacterium tuberculosis, H37RV

T1 sequence (Q56950 1-525): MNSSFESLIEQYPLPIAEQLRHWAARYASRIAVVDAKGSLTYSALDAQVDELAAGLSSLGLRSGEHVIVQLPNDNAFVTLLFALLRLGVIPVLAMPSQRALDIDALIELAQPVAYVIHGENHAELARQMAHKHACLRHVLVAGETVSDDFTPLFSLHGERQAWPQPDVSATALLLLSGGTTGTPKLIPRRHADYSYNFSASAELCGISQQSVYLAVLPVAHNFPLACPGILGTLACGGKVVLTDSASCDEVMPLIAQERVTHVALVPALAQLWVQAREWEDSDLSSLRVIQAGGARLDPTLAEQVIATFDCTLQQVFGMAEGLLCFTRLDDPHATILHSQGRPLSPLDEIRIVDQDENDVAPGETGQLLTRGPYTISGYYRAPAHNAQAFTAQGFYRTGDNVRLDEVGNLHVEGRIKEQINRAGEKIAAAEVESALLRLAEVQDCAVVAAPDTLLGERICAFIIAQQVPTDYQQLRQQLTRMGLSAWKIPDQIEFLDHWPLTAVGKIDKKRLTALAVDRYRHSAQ

CC(OS(=O)(=O)NC(=O)c1ccccc1O)[C@H]1O[C@@H](n2cnc3c(N)ncnc32)[C@H](O)[C@@H]1O (mixture of isomers) [(RS)-5′-methyl-salicyl-AMS]
IC50 (YbtE [1]; IC50): 0.009 µM

COc1ccccc1C(=O)NS(=O)(=O)OC[C@H]1O[C@@H](n2cnc3c(N)ncnc32)[C@H](O)[C@@H]1O [2-methoxybenzoyl-AMS]
IC50 (YbtE [1]; IC50): > 0.08 µM and 0.065 µM
IC50 (M. tuberculosis H37Rv; [7]): > 200 µM
MIC90 (M. tuberculosis H37Rv; [7]): > 200 µM

CC(=O)Oc1ccccc1C(=O)NS(=O)(=O)OC[C@H]1O[C@@H](n2ccc3ccccc32)[C@H](OC(C)=O)[C@@H]1OC(C)=O [2′,2″,3′-triacetylsalicyl-IRMS]
IC50 (YbtE [1]; IC50): 1.8 µM
MIC90 (Y. pestis KIM6-2082.1+; Yersinia pestis): ~500 µM (≈ 287 µg/mL)
IC50 (M. tuberculosis H37Rv): 25 µM and 22 µM and 33 µM and 31 µM and 35 µM
IC50 (M. tuberculosis H37Rv; [7]): 24 µM
MIC90 (M. tuberculosis H37Rv; [7]): ~50 µM (≈ 28.7 µg/mL)

CC(=O)O[C@@H]1[C@H](OC(C)=O)[C@@H](COS(=O)(=O)NC(=O)c2ccccc2O)O[C@H]1n1cnc2c(N)ncnc21 [2′,3′-diacetyl-salicyl-AMS]
MIC90 (M. tuberculosis H37Rv; [7]): > 200 µM

CC(=O)O[C@@H]1[C@H](OC(C)=O)[C@@H](COS(=O)(=O)NC(=O)c2ccccc2O)O[C@H]1n1ccc2ccccc21 [2′,3′-diacetylsalicyl-IRMS]
IC50 (YbtE [1]; IC50): 3.9 µM
IC50 (Y. pestis KIM6-2082.1+; Yersinia pestis): > 200 µM
MIC90 (Y. pestis KIM6-2082.1+; Yersinia pestis): > 200 µM
IC50 (M. tuberculosis H37Rv; [7]): > 200 µM
MIC90 (M. tuberculosis H37Rv; [7]): > 200 µM

Nc1ncnc2c1ncn2[C@@H]1O[C@H](COS(=O)(=O)NC(=O)c2ccc(O)cc2)[C@@H](O)[C@H]1O [4-hydroxybenzoyl-AMS]
IC50 (YbtE [1]; IC50): > 0.08 µM and 6 µM
IC50 (M. tuberculosis H37Rv): 110 µM
IC50 (M. tuberculosis H37Rv; [7]): > 200 µM
MIC90 (M. tuberculosis H37Rv; [7]): > 200 µM

Cc1cccc(O)c1C(=O)NS(=O)(=O)OC[C@H]1O[C@@H](n2cnc3c(N)ncnc32)[C@H](O)[C@@H]1O [6-methylsalicyl-AMS]
IC50 (YbtE [1]; IC50): 0.023 µM

Nc1ncnc2c1ncn2[C@@H]1O[C@H](COS(N)(=O)=O)[C@@H](O)[C@H]1O [AMS, 5′-O-Sulfamoyladenosine, reference compound]
inhibition of adenylation (YbtE [2]): did not inhibit adenylation
inhibition of salicylation (YbtE [1]): did not inhibit salicylation
IC50 (M. tuberculosis H37Rv): 39 µM and 43 µM and 55 µM
IC50 (M. tuberculosis H37Rv; [7]): 35 µM
MIC90 (M. tuberculosis H37Rv; [7]): ~100 µM (≈ 34.6 µg/mL)

Nc1ncnc2c1ncn2[C@@H]1O[C@H](COP(=O)(O)OP(=O)(O)OP(=O)(O)O)[C@@H](O)[C@H]1O [ATP]
Km (YbtE [2]; read-out: Km ATP): 172 µM
Km (YbtE [3]; read-out: Km ATP): 350 µM

NS(=O)(=O)OC[C@H]1O[C@@H](n2ccc3ccccc32)[C@H](O)[C@@H]1O [IRMS]
IC50 (YbtE [1]; IC50): > 20 µM
IC50 (M. tuberculosis H37Rv; [7]): > 200 µM
MIC90 (M. tuberculosis H37Rv; [7]): > 200 µM

CC(=O)NS(=O)(=O)OC[C@H]1O[C@@H](n2cnc3c(N)ncnc32)[C@H](O)[C@@H]1O [acetyl-AMS]
IC50 (YbtE [1]; IC50): > 400 µM

Nc1ncnc2c1ncn2[C@@H]1O[C@H](COS(=O)(=O)NC(=O)c2ccccc2)[C@@H](O)[C@H]1O [benzoyl-AMS]
IC50 (YbtE [1]; IC50): 0.004 µM and 0.012 µM
IC50 (Y. pestis KIM6-2082.1+): 500 µM
MIC90 (Y. pestis KIM6-2082.1+; Yersinia pestis): > 500 µM
IC50 (M. tuberculosis H37Rv): 105 µM and 133 µM
MIC90 (M. tuberculosis H37Rv; [7]): > 200 µM

Nc1ncnc2c1nc1n2[C@@H]2O[C@H](COS(=O)(=O)NC(=O)CCCCC1)[C@@H](O)[C@H]2O [cyclo-hexanoyl-AMS]
IC50 (YbtE [1]; IC50): > 40 µM

Nc1ncnc2c1nc1n2[C@@H]2O[C@H](COS(=O)(=O)NC(=O)CCCC#C1)[C@@H](O)[C@H]2O [cyclo-hexynoyl-AMS]
IC50 (YbtE [1]; IC50): > 40 µM

NNC(=O)c1ccncc1 [isoniazid, reference compound]
IC50 (M. tuberculosis H37Rv): 0.11 µM and 0.08 µM and 0.1 µM
MIC90 (M. tuberculosis H37Rv): 0.16 µM (≈ 0.0219 µg/mL)
IC50 (M. tuberculosis H37Rv; [7]): 0.12 µM
MIC90 (M. tuberculosis H37Rv; [7]): 0.2 µM (≈ 0.0274 µg/mL)

Nc1ccc(C(=O)O)c(O)c1 [p-aminosalicylic acid, reference compound]
IC50 (M. tuberculosis H37Rv): 0.08 µM
iron-deficient media selectivity (M. tuberculosis H37Rv): do not exhibit iron-deficient media selectivity
IC50 (M. tuberculosis H37Rv; [7]): 0.09 µM
MIC90 (M. tuberculosis H37Rv; [7]): 0.78 µM (≈ 0.119 µg/mL)

Nc1ncnc2c1ncn2[C@@H]1O[C@H](COS(=O)(=O)NC(=O)c2ccccc2O)[C@@H](O)[C@H]1O [salicyl-AMS, 5′-O—[N-(salicyl)sulfamoyl]-adenosine]
IC50 (YbtE [2]): 0.01 to 0.015 µM
Kd (YbtE [2]): ≤ 0.001 µM
Ki (YbtE [2]): 0.00035 ± 0.00027 µM
slope of IC50 versus YbtE concentration (YbtE [2]): 0.43
slope of IC50 versus YbtE concentration, corrected (YbtE [2]): 0.52
IC50 (YbtE [2]; read-out: IC50, inhibition of adenylation activity): 0.0147 ± 0.002 µM
Ki (YbtE [2]; read-out: Ki (non-competitive with respect to salicylate)): 0.00108 ± 0.00098 µM
IC50 (YbtE [1]; IC50): 0.0145 µM and 0.009 µM
IC50 (YbtE [1]; read-out: IC50): 0.0479 µM
MBT production [4]: virtually undetectable
activity on growth (Y. pestis KIM6-2082.1+): not active
IC50 (Y. pestis KIM6-2082.1+; Yersinia pestis, read-out: IC50, bacterial growth in iron-limiting media): 25 to 52 µM
IC50 (Y. pestis KIM6-2082.1+; Yersinia pestis, read-out: IC50, growth inhibition): ~50 µM
MIC (Y. pestis KIM6-2082.1+; Yersinia pestis, read-out: MIC95, growth inhibition): 96.7 µM (≈ 45.1 µg/mL)
IC50 (Y. pestis KIM6-2082.1+; read-out: IC50, growth inhibition): 51.2 ± 4.7 µM
increase of IC50, iron-supplemented vs iron-deficient (M. tuberculosis H37Rv): 18 fold
MIC (M. tuberculosis H37Rv; Mycobacterium tuberculosis, H37RV, read-out: MIC95, growth inhibition): 268 µM (≈ 125 µg/mL)
isotopically stable in D2O [5]: ≥ 54 days

O=C(NS(=O)(=O)OC[C@H]1O[C@@H](n2ccc3ccccc32)[C@H](O)[C@@H]1O)c1ccccc1O [salicyl-IRMS, β-indolyl 5′-O—(N-salicylsulfamoyl)ribose]
IC50 (YbtE [1]; IC50): 0.021 µM
IC50 (Y. pestis KIM6-2082.1+; Yersinia pestis): > 500 µM
MIC90 (Y. pestis KIM6-2082.1+; Yersinia pestis): > 500 µM
IC50 (M. tuberculosis H37Rv; [7]): > 200 µM
MIC90 (M. tuberculosis H37Rv; [7]): > 200 µM

Nc1ncnc2c1ncn2[C@H]1C[C@H](O)[C@@H](COS(=O)(=O)NC(=O)c2ccccc2O)O1 [salicyl-dAMS]
IC50 (YbtE [1]; IC50): 0.008 µM and 0.014 µM

Nc1ncnc2c1ncn2[C@H]1CC[C@@H](COS(=O)(=O)NC(=O)c2ccccc2O)O1 [salicyl-ddAMS]
MIC90 (M. tuberculosis H37Rv; [7]): ~200 µM (≈ 86.9 µg/mL)

O=C(O)c1ccccc1O [salicylate]
Km (YbtE [2]; read-out: Km salicylate): 5.4 µM
Km (YbtE [3]; read-out: Km salicylate): 4.6 µM

[H]/N=C(/N)N[C@H]1[C@H](O)[C@@H](O)[C@H](O[C@@H]2O[C@@H](C)[C@](O)(C=O)[C@H]2O[C@@H]2O[C@@H](CO)[C@H](O)[C@@H](O)[C@@H]2NC)[C@@H](N/C(N)=N\[H])[C@@H]1O [streptomycin]
MIC (92 Y. pestis strains): 2.6 to 6.9 µM
MIC [6]: 0.4 to 1.7 µM
